Among the data in the SangsterLogP compilation are logP and logD values, retold here.

Experiment in one data set: not given
Conditions: not given
Compound `Brc1cc2oc3cc(Br)c(Br)cc3c2cc1Br` displayed a log partition coefficient (logP) of 5.98.
Compound `Brc1cc2c(cc1Br)Oc1cc(Br)c(Br)cc1O2` registered a log partition coefficient (logP) of 6.5.
`Brc1cc2oc3c(Br)c(Br)c(Br)cc3c2cc1Br` displayed a lipophilicity (logP) of 7.04.
As for `Clc1cc2oc3c(Cl)cc(Cl)c(Cl)c3c2c(Cl)c1Cl`, the logP came out at 6.82.
The compound `Brc1cc2oc3cc(Br)c(Br)c(Br)c3c2cc1Br` showed a lipophilicity (logP) of 7.2.
The same measure, in the same setting: then `Brc1cc2oc3ccc(Br)c(Br)c3c2cc1Br`, with 6.2.
Still for that read-out and setting: then `Clc1cc2oc3cc(Cl)c(Cl)cc3c2cc1Cl`, with 5.83.

Experiment in a further data set: not given
Conditions: not given
This is another data set of the same source.
Turning to `O=C(CCCCC(CO[N+](=O)[O-])O[N+](=O)[O-])Oc1ccccc1C(=O)O` (centres undefined), the logP was 2.97.
Same read-out and setting: to `CC(C)(CO[N+](=O)[O-])C(=O)Oc1ccccc1C(=O)O` belongs 2.32; to `O=C(CCCCCCO[N+](=O)[O-])Oc1ccccc1C(=O)O`, 3.22.
On the same count and under the same terms, then `O=C(CCCCO[N+](=O)[O-])Oc1ccccc1C(=O)O`, with 2.21; and `O=C(CCO[N+](=O)[O-])Oc1ccccc1C(=O)O`, with 1.6; and `O=C(CCCC(CO[N+](=O)[O-])O[N+](=O)[O-])Oc1ccccc1C(=O)O` (centres undefined), with 2.62.
Consider `CC(C)(CCC(CO[N+](=O)[O-])O[N+](=O)[O-])C(=O)Oc1ccccc1C(=O)O` (centres undefined), for which the logP was determined as 3.33.

The next data set in a line: method code SF-AS, from Kishida, K.; Otori, T. (1980). A quantitative study on the relationship between transcorneal permeability of drugs and their hydrophobicity. Jpn J Ophthalmol, 24(3)251-259. Particulars: pH 7.4.
`COc1ccc(OC)c(N)c1` came in with a logD of 1.2.
Consider `Nc1ccc(CO)cc1`, for which the logD is -0.22.
Turning to `CCc1ccc(N)cc1`, the logD was 1.96.
Still for that read-out and setting: then `CCOc1ccc(N)cc1`, with 1.24; and `Nc1ccc(CCO)cc1`, with 0.1.
The compound `CC(=O)c1ccc(N)cc1` showed a logD of 0.83.
Still for that read-out and setting: then `Nc1ccc(Cc2ccc(N)cc2)cc1`, with 1.62.

Experiment in a further data set: not given
Conditions: not given
This is another data set of the same source.
In the case of `CCN(CC)CCNC(=O)c1ccc(NS(C)(=O)=O)cc1`, the logP was determined as 1.36.
The compound `Cc1ccccc1OCC(O)CNCCOc1ccc(C(N)=O)cc1` (centres undefined) gave a logP of 2.19.
Still for that read-out and setting: then `Cc1ccccc1N1C(=O)c2cc(S(N)(=O)=O)c(Cl)cc2NC1C` (centres undefined), with 1.8; and `CC(C)NCC(O)c1ccc(NS(C)(=O)=O)cc1` (centres undefined), with 0.53; and `CCC(=O)C(CC(C)N(C)C)(c1ccccc1)c1ccccc1` (centres undefined), with 3.93.
The compound `COc1ccc(CCN(C)CCCC2(c3ccc(OC)c(OC)c3)S(=O)(=O)CCCS2(=O)=O)cc1OC` yielded a logP of 2.6.

A further data set in a line: method code SF-AS, from PMID: 7149911. Particulars: pH 8.9.
For `CN(N=O)C(=O)Nc1ccccc1`, the logD was 1.72.
`CN(N=O)C(=O)Nc1ccc(F)cc1` had a logD of 1.88.
Compound `CC(C)N(N=O)C(=O)Nc1ccccc1` displayed a logD of 2.5.
Compound `CCN(N=O)C(=O)Nc1ccccc1` yielded a logD of 2.25.
`CN(N=O)C(=O)Oc1cccc2ccccc12`: the logD amounted to 2.85.
`CN(N=O)C(=O)N(C)c1ccccc1` displayed a logD of 1.58.

Another data set in a line: method code SF-AS, from DOI: 10.1016/0041-008x(67)90079-8.
Conditions: not given
In turn, `Clc1cncc(Cl)c1` returned a lipophilicity (logP) of 2.56.
As to `Clc1cc(Cl)nc(Cl)c1`, the logP is 2.68.
Compound `Clc1cnc(Cl)c(Cl)c1` registered a logP of 3.11.
`Clc1cccc(Cl)n1`: the lipophilicity (logP) was 2.15.
Same read-out and setting: then `Clc1cccnc1Cl`, with 2.11; and `Clc1ccc(Cl)c(Cl)n1`, with 2.77.

Another data set can be described thus: method code SF-HPLC, from Peips, M.; Sikk, P.; Aaviksaar, A. (1986). Hydrophobic interaction in the active sites of serine proteases from thermoactinomycetes. Org. React., 23(3)261-271. Particulars: pH 2.2.
On to `CCCCC(NC(C)=O)C(=O)O` (centres undefined), for which the logD amounted to 0.33.
`COC(=O)[C@H](Cc1ccc(O)cc1)NC(C)=O` had a logD of 0.33.
Consider `CCC(NC(C)=O)C(=O)OC` (centres undefined), for which the logD is -0.17.
In turn, `COC(=O)[C@H](C)NC(C)=O` showed a logD of -0.57.
The compound `CCCCCCC(NC(C)=O)C(=O)OC` (centres undefined) returned a logD of 1.7.
Regarding `COC(=O)[C@H](CC(C)C)NC(C)=O`, the logD came out at 0.84.

The nature of the next data set: method code …, from Wiggins, H.; Karcher, A.; Michael Wilson, J.; Robb, I. (2008). Determining Octanol/Water Partitioning Coefficients for Industrial Surfactants. Proc. 15th Annual International Petroleum & Biofuels ….
Conditions: not given
Regarding `CCCCCCCCOCCOCCOCCOCCOCCO`, the log partition coefficient (logP) came out at 2.43.
On the same count and under the same terms, to `CCCCCCCCCCCCOCCOCCOCCOCCOCCOCCOCCO` belongs 4.59; to `CCCCCCOCCOCCOCCOCCOCCO`, 1.24; to `CCCCCCCCOCCOCCOCCO`, 2.84.
For `CCCCCCCCCCOCCOCCOCCOCCOCCOCCOCCOCCO`, the lipophilicity (logP) amounted to 3.09.
`CCCCCCCCCCCCCCOCCOCCOCCOCCOCCOCCOCCOCCO` yielded a logP of 5.65.

Experiment in the next data set: not given
Conditions: not given
This is another data set of the same source.
Turning to `c1ccc2c(c1)Cc1cccnc1-2`, the lipophilicity (logP) was found to be 2.78.
In turn, `c1ccc2nc3ccc4ccccc4c3cc2c1` displayed a logP of 4.27.
Compound `c1ccc2c(c1)cnc1ccccc12` displayed a logP of 3.3.
In turn, `c1cnc2c(c1)cc1ccc3cccc4ccc2c1c34` registered a logP of 5.35.
On the same count and under the same terms, then `c1ccc2c(c1)ccc1nc3c(ccc4ccccc43)cc12`, with 5.38; and `c1ccc2c(c1)ccc1nc3ccc4ccccc4c3cc12`, with 5.31.

The next data set can be described thus: method code SF-AS, from DOI: 10.1584/jpestics.8.69.
Conditions: not given
`COc1ccc(C(C[N+](=O)[O-])c2ccc(OC)cc2)cc1` had a log partition coefficient (logP) of 3.57.
For the compound `CCC(C(c1ccc(OC)cc1)c1ccc(OC)cc1)[N+](=O)[O-]` (centres undefined), the logP stood at 4.45.
On the same count and under the same terms, then `ClC(Cl)(Cl)C(c1ccccc1)c1ccccc1`, with 4.87; and `COc1ccc(C(c2ccc(OC)cc2)C(F)(F)F)cc1`, with 4.76; and `COc1ccc(C(C)c2ccc(OC)cc2)cc1`, with 4.52.
Turning to `COc1ccc(C(c2ccc(OC)cc2)C(C)[N+](=O)[O-])cc1` (centres undefined), the log partition coefficient (logP) was determined as 3.87.

The next data set can be described thus: method code SF-HPLC, from DOI: 10.1016/0378-5173(88)90064-6. Particulars: pH 7.4.
The compound `CC(=O)c1ccc2cc(C(C)C(=O)OCC(=O)N(C)CC(N)=O)ccc2c1` (centres undefined) came in with a logD of 1.37.
As for `CC(=O)c1ccc2cc(C(C)C(=O)OCC(=O)N(CCO)CCO)ccc2c1` (centres undefined), the logD came to 1.7.
The same measure, in the same setting: then `CN(C)C(=O)COC(=O)c1ccccc1O`, with 1.21; and `CC(=O)c1ccc2cc(C(C)C(=O)OCC(N)=O)ccc2c1` (centres undefined), with 2.06; and `CCN(CC)C(=O)COC(=O)c1ccccc1O`, with 1.99.
Still for that read-out and setting: then `CCN(CC)C(=O)COC(=O)C(C)c1ccc2cc(C(C)=O)ccc2c1` (centres undefined), with 3.32.

A short description of another data set: method code SF-AS, from DOI: 10.1248/bpb1978.4.759, PMID: 7320829.
Conditions: not given
Take `O=C1NC(=O)C(c2ccccc2)(c2ccccc2)N1S(=O)(=O)c1ccc(Cl)cc1`: the log partition coefficient (logP) amounted to 3.48.
The same measure, in the same setting: to `O=C1NC(=O)C(c2ccccc2)(c2ccc(O)cc2)N1` (centres undefined) belongs 1.72; to `CCC1(c2ccccc2)C(=O)NC(=O)N1S(=O)(=O)c1ccccc1` (centres undefined), 2.44.
The compound `Cc1ccccc1S(=O)(=O)N1C(=O)NC(=O)C1(c1ccccc1)c1ccccc1` registered a log partition coefficient (logP) of 4.
Regarding `CC1(C)NC(=O)NC1=O`, the log partition coefficient (logP) is -0.48.

The same data set, now with this note: pH 7.0.
Take `O=C1NC(=O)C(c2ccccc2)(c2ccccc2)N1S(=O)(=O)c1ccccc1`: the logD is 1.93.

Experiment in another data set: not given
Conditions: not given
The source holds these as a separate data set.
`C=CCOc1ccccc1OCC(CNC(C)C)OC(=O)C(C)C` (centres undefined) showed a logP of 3.77.
On the same count and under the same terms, to `C=CCOc1ccccc1OCC(CNC(C)C)OC(=O)c1ccc([N+](=O)[O-])cc1` (centres undefined) belongs 5.22.
Still for that read-out and setting: to `C=CCOc1ccccc1OCC(CNC(C)C)OC(=O)CC` (centres undefined) belongs 3.76; to `C=CCOc1ccccc1OCC(CNC(C)C)OC(C)=O` (centres undefined), 3.82; to `C=CCOc1ccccc1OCC(CNC(C)C)OC(=O)C1CC1` (centres undefined), 3.01.
On the same count and under the same terms, to `C=CCOc1ccccc1OCC(CNC(C)C)OC(=O)C(C)(C)C` (centres undefined) belongs 3.54.
In the case of `C=CCOc1ccccc1OCC(CNC(C)C)OC(=O)CCC` (centres undefined), the lipophilicity (logP) stood at 3.95.

Experiment in a further data set: not given
Conditions: not given
This is another data set of the same source.
`Cn1c(=O)nc(-c2ccccc2)c2ccc(Cl)cc21` displayed a logP of 2.36.
In turn, `COc1ccc2c(c1)c(-c1ccccc1)nc(=O)n2C` showed a log partition coefficient (logP) of 1.91.
With `Cn1c(=O)nc(-c2ccccc2)c2cc(F)ccc21`, the logP worked out at 1.87.
The same measure, in the same setting: then `Cn1c(=O)nc(-c2ccccc2)c2cc(S(C)(=O)=O)ccc21`, with 0.59; and `Cn1c(=O)nc(-c2ccccc2)c2cc(Cl)ccc21`, with 2.38.
The compound `Cn1c(=O)nc(-c2ccccc2)c2cc(C(F)(F)F)ccc21` came in with a logP of 2.69.

Another data set in a line: method code SF, from DOI: 10.1023/a:1016286026462, PMID: 8570535.
Conditions: not given
`CC(C)c1ccc(C(=O)CC(=O)c2ccccc2)cc1` showed a lipophilicity (logP) of 6.51.
For the compound `COc1ccc(C(=O)c2ccccc2)c(O)c1`, the logP was 3.82.
Compound `CCCCOC(=O)c1ccccc1C(=O)OCCCC` returned a lipophilicity (logP) of 4.39.
For `CCCCCCCCOC(=O)c1ccc(N(C)C)cc1`, the lipophilicity (logP) stood at 5.75.
The same measure, in the same setting: to `Cc1ccc(C=C2C(=O)[C@]3(C)CCC2C3(C)C)cc1` belongs 5.13; to `COc1cc(C(C)(C)C)c(O)c(C(C)(C)C)c1`, 4.64.
